{"source": "PubChem BioAssay AID2060483", "about": "(Molecular Pharmacology Branch, DTP, NCI, 2025)", "tested_on": "K24384-001-R-PDC complex spheroids, viability", "test": "Anticancer human tumor K24384-001-R-PDC patient-derived pancreatic adenocarcinoma cell line growth inhibition [GQUAD]", "conditions": "for IC50: curve of first compound; for viability, T/C: stronger effect = lower value", "procedure,_shortened": "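Multi-cell-type spheroids of tumor cells with HUVEC and mesenchymal stem cells, treated with drug combinations. Concentrations descend in half-log steps from near clinical Cmax, or from 10 microM where Cmax is unknown; viability read-out.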", "key": {"[1]": {"conditions": "second compound 0.0316 µM, first compound 0.0316 µM"}, "[2]": {"conditions": "second compound 0.0316 µM, first compound 0.1 µM"}, "[3]": {"conditions": "second compound 0.0316 µM, first compound 0.316 µM"}, "[4]": {"conditions": "second compound 0.0316 µM, first compound 1 µM"}, "[5]": {"conditions": "second compound 0.0316 µM, first compound 3.16 µM"}, "[6]": {"conditions": "second compound 0.0316 µM, first compound 10 µM"}, "[7]": {"conditions": "second compound 0.1 µM, first compound 0.0316 µM"}, "[8]": {"conditions": "second compound 0.1 µM, first compound 0.1 µM"}, "[9]": {"conditions": "second compound 0.1 µM, first compound 0.316 µM"}, "[10]": {"conditions": "second compound 0.1 µM, first compound 1 µM"}, "[11]": {"conditions": "second compound 0.1 µM, first compound 3.16 µM"}, "[12]": {"conditions": "second compound 0.1 µM, first compound 10 µM"}, "[13]": {"conditions": "second compound 0.316 µM, first compound 0.0316 µM"}, "[14]": {"conditions": "second compound 0.316 µM, first compound 0.1 µM"}, "[15]": {"conditions": "second compound 0.316 µM, first compound 0.316 µM"}, "[16]": {"conditions": "second compound 0.316 µM, first compound 1 µM"}, "[17]": {"conditions": "second compound 0.316 µM, first compound 3.16 µM"}, "[18]": {"conditions": "second compound 0.316 µM, first compound 10 µM"}, "[19]": {"conditions": "second compound 1 µM, first compound 0.0316 µM"}, "[20]": {"conditions": "second compound 1 µM, first compound 0.1 µM"}, "[21]": {"conditions": "second compound 1 µM, first compound 0.316 µM"}, "[22]": {"conditions": "second compound 1 µM, first compound 1 µM"}, "[23]": {"conditions": "second compound 1 µM, first compound 3.16 µM"}, "[24]": {"conditions": "second compound 1 µM, first compound 10 µM"}, "[25]": {"conditions": "second compound 3.16 µM, first compound 0.0316 µM"}, "[26]": {"conditions": "second compound 3.16 µM, first compound 0.1 µM"}, "[27]": {"conditions": "second compound 3.16 µM, first compound 0.316 µM"}, "[28]": {"conditions": "second compound 3.16 µM, first compound 1 µM"}, "[29]": {"conditions": "second compound 3.16 µM, first compound 3.16 µM"}, "[30]": {"conditions": "second compound 3.16 µM, first compound 10 µM"}, "[31]": {"conditions": "second compound 10 µM, first compound 0.0316 µM"}, "[32]": {"conditions": "second compound 10 µM, first compound 0.1 µM"}, "[33]": {"conditions": "second compound 10 µM, first compound 0.316 µM"}, "[34]": {"conditions": "second compound 10 µM, first compound 1 µM"}, "[35]": {"conditions": "second compound 10 µM, first compound 3.16 µM"}, "[36]": {"conditions": "second compound 10 µM, first compound 10 µM"}}}
{"compound": "O=c1[nH]cc(F)c(=O)[nH]1", "note": "+ CN(C)c1ccc(Nc2c3ccc(NC(=O)CCN4CCCC4)cc3nc3cc(NC(=O)CCN4CCCC4)ccc23)cc1;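 note: spheroids exposed to compounds for seven days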", "values": [{"measurement": "IC50", "setting": "second compound 0.0316 µM", "result": 2200, "unit": "nM"}, {"measurement": "IC50", "setting": "second compound 0.1 µM", "result": 1570, "unit": "nM"}, {"measurement": "IC50", "setting": "second compound 0.316 µM", "result": 1650, "unit": "nM"}, {"measurement": "IC50", "setting": "second compound 1 µM", "result": 1260, "unit": "nM"}, {"measurement": "IC50", "setting": "second compound 3.16 µM", "result": 1360, "unit": "nM"}, {"measurement": "IC50", "setting": "second compound 10 µM", "result": 1750, "unit": "nM"}, {"measurement": "viability, T/C", "setting": "[1]", "result": 111, "unit": "%"}, {"measurement": "viability, T/C", "setting": "[2]", "result": 71.7, "unit": "%"}, {"measurement": "viability, T/C", "setting": "[3]", "result": 88.4, "unit": "%"}, {"measurement": "viability, T/C", "setting": "[4]", "result": 52.4, "unit": "%"}, {"measurement": "viability, T/C", "setting": "[5]", "result": 42.5, "unit": "%"}, {"measurement": "viability, T/C", "setting": "[6]", "result": 40.3, "unit": "%"}, {"measurement": "viability, T/C", "setting": "[7]", "result": 98.7, "unit": "%"}, {"measurement": "viability, T/C", "setting": "[8]", "result": 100, "unit": "%"}, {"measurement": "viability, T/C", "setting": "[9]", "result": 66.5, "unit": "%"}, {"measurement": "viability, T/C", "setting": "[10]", "result": 59.2, "unit": "%"}, {"measurement": "viability, T/C", "setting": "[11]", "result": 42.7, "unit": "%"}, {"measurement": "viability, T/C", "setting": "[12]", "result": 33.3, "unit": "%"}, {"measurement": "viability, T/C", "setting": "[13]", "result": 94.8, "unit": "%"}, {"measurement": "viability, T/C", "setting": "[14]", "result": 94.8, "unit": "%"}, {"measurement": "viability, T/C", "setting": "[15]", "result": 72.6, "unit": "%"}, {"measurement": "viability, T/C", "setting": "[16]", "result": 59.1, "unit": "%"}, {"measurement": "viability, T/C", "setting": "[17]", "result": 40.4, "unit": "%"}, {"measurement": "viability, T/C", "setting": "[18]", "result": 32.5, "unit": "%"}, {"measurement": "viability, T/C", "setting": "[19]", "result": 90.2, "unit": "%"}, {"measurement": "viability, T/C", "setting": "[20]", "result": 88.8, "unit": "%"}, {"measurement": "viability, T/C", "setting": "[21]", "result": 72.4, "unit": "%"}, {"measurement": "viability, T/C", "setting": "[22]", "result": 57.5, "unit": "%"}, {"measurement": "viability, T/C", "setting": "[23]", "result": 31.3, "unit": "%"}, {"measurement": "viability, T/C", "setting": "[24]", "result": 32.1, "unit": "%"}, {"measurement": "viability, T/C", "setting": "[25]", "result": 83.9, "unit": "%"}, {"measurement": "viability, T/C", "setting": "[26]", "result": 89.5, "unit": "%"}, {"measurement": "viability, T/C", "setting": "[27]", "result": 65.9, "unit": "%"}, {"measurement": "viability, T/C", "setting": "[28]", "result": 57.3, "unit": "%"}, {"measurement": "viability, T/C", "setting": "[29]", "result": 37.6, "unit": "%"}, {"measurement": "viability, T/C", "setting": "[30]", "result": 31.5, "unit": "%"}, {"measurement": "viability, T/C", "setting": "[31]", "result": 83.4, "unit": "%"}, {"measurement": "viability, T/C", "setting": "[32]", "result": 85.2, "unit": "%"}, {"measurement": "viability, T/C", "setting": "[33]", "result": 62.2, "unit": "%"}, {"measurement": "viability, T/C", "setting": "[34]", "result": 69, "unit": "%"}, {"measurement": "viability, T/C", "setting": "[35]", "result": 34.1, "unit": "%"}, {"measurement": "viability, T/C", "setting": "[36]", "result": 31.7, "unit": "%"}]}
{"compound": "COc1cccc2c1C(=O)c1c(O)c3c(c(O)c1C2=O)CC(O)(C(=O)CO)CC3OC1CC(N)C(O)C(C)O1", "note": "(centres undefined) + Cc1[nH]c2ccc(F)cc2c1-c1nc2c3cccnc3c3ncccc3c2[nH]1", "values": [{"measurement": "IC50", "setting": "second compound 0.0316 µM", "result": 191, "unit": "nM"}, {"measurement": "IC50", "setting": "second compound 0.1 µM", "result": 204, "unit": "nM"}, {"measurement": "IC50", "setting": "second compound 0.316 µM", "result": 203, "unit": "nM"}, {"measurement": "IC50", "setting": "second compound 1 µM", "result": 219, "unit": "nM"}, {"measurement": "IC50", "setting": "second compound 3.16 µM", "result": 126, "unit": "nM"}, {"measurement": "IC50", "setting": "second compound 10 µM", "result": 80.1, "unit": "nM"}, {"measurement": "viability, T/C", "setting": "[1]", "result": 89.8, "unit": "%"}, {"measurement": "viability, T/C", "setting": "[2]", "result": 70, "unit": "%"}, {"measurement": "viability, T/C", "setting": "[3]", "result": 33.1, "unit": "%"}, {"measurement": "viability, T/C", "setting": "[4]", "result": 17.6, "unit": "%"}, {"measurement": "viability, T/C", "setting": "[5]", "result": 5.95, "unit": "%"}, {"measurement": "viability, T/C", "setting": "[6]", "result": 4.77, "unit": "%"}, {"measurement": "viability, T/C", "setting": "[7]", "result": 78.8, "unit": "%"}, {"measurement": "viability, T/C", "setting": "[8]", "result": 64.8, "unit": "%"}, {"measurement": "viability, T/C", "setting": "[9]", "result": 39.2, "unit": "%"}, {"measurement": "viability, T/C", "setting": "[10]", "result": 25.6, "unit": "%"}, {"measurement": "viability, T/C", "setting": "[11]", "result": 8.24, "unit": "%"}, {"measurement": "viability, T/C", "setting": "[12]", "result": 4.61, "unit": "%"}, {"measurement": "viability, T/C", "setting": "[13]", "result": 74.2, "unit": "%"}, {"measurement": "viability, T/C", "setting": "[14]", "result": 63.4, "unit": "%"}, {"measurement": "viability, T/C", "setting": "[15]", "result": 40.9, "unit": "%"}, {"measurement": "viability, T/C", "setting": "[16]", "result": 22.4, "unit": "%"}, {"measurement": "viability, T/C", "setting": "[17]", "result": 6.31, "unit": "%"}, {"measurement": "viability, T/C", "setting": "[18]", "result": 4.4, "unit": "%"}, {"measurement": "viability, T/C", "setting": "[19]", "result": 85.4, "unit": "%"}, {"measurement": "viability, T/C", "setting": "[20]", "result": 75.3, "unit": "%"}, {"measurement": "viability, T/C", "setting": "[21]", "result": 32.2, "unit": "%"}, {"measurement": "viability, T/C", "setting": "[22]", "result": 27.8, "unit": "%"}, {"measurement": "viability, T/C", "setting": "[23]", "result": 7.66, "unit": "%"}, {"measurement": "viability, T/C", "setting": "[24]", "result": 4.24, "unit": "%"}, {"measurement": "viability, T/C", "setting": "[25]", "result": 70.6, "unit": "%"}, {"measurement": "viability, T/C", "setting": "[26]", "result": 55.1, "unit": "%"}, {"measurement": "viability, T/C", "setting": "[27]", "result": 32, "unit": "%"}, {"measurement": "viability, T/C", "setting": "[28]", "result": 28, "unit": "%"}, {"measurement": "viability, T/C", "setting": "[29]", "result": 7.01, "unit": "%"}, {"measurement": "viability, T/C", "setting": "[30]", "result": 1.96, "unit": "%"}, {"measurement": "viability, T/C", "setting": "[31]", "result": 60.5, "unit": "%"}, {"measurement": "viability, T/C", "setting": "[32]", "result": 49.3, "unit": "%"}, {"measurement": "viability, T/C", "setting": "[33]", "result": 28.1, "unit": "%"}, {"measurement": "viability, T/C", "setting": "[34]", "result": 20, "unit": "%"}, {"measurement": "viability, T/C", "setting": "[35]", "result": 5.65, "unit": "%"}, {"measurement": "viability, T/C", "setting": "[36]", "result": 1.85, "unit": "%"}]}
